Measured values: PubChem BioAssay AID2060889 (Molecular Pharmacology Branch, DTP, NCI, 2025)

Test system: LG0567-F671-PDC complex spheroids viability
Assay: Anticancer human tumor LG0567-F671-PDC patient-derived lung adenocarcinoma cell line growth inhibition [RAS]
Conditions: for IC50: curve of first compound; for viability, T/C: stronger effect = lower value
Procedure, shortened: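 Tumour cells grown as complex spheroids with HUVEC endothelial cells and mesenchymal stem cells, treated with RAS pathway inhibitor combinations. Each agent spans half-log steps from near clinical Cmax, or 10 microM where Cmax is unknown.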

[1] = second compound 0.0316 µM, first compound 0.0316 µM
[2] = second compound 0.0316 µM, first compound 0.1 µM
[3] = second compound 0.0316 µM, first compound 0.316 µM
[4] = second compound 0.0316 µM, first compound 1 µM
[5] = second compound 0.0316 µM, first compound 3.16 µM
[6] = second compound 0.0316 µM, first compound 10 µM
[7] = second compound 0.1 µM, first compound 0.0316 µM
[8] = second compound 0.1 µM, first compound 0.1 µM
[9] = second compound 0.1 µM, first compound 0.316 µM
[10] = second compound 0.1 µM, first compound 1 µM
[11] = second compound 0.1 µM, first compound 3.16 µM
[12] = second compound 0.1 µM, first compound 10 µM
[13] = second compound 0.316 µM, first compound 0.0316 µM
[14] = second compound 0.316 µM, first compound 0.1 µM
[15] = second compound 0.316 µM, first compound 0.316 µM
[16] = second compound 0.316 µM, first compound 1 µM
[17] = second compound 0.316 µM, first compound 3.16 µM
[18] = second compound 0.316 µM, first compound 10 µM
[19] = second compound 1 µM, first compound 0.0316 µM
[20] = second compound 1 µM, first compound 0.1 µM
[21] = second compound 1 µM, first compound 0.316 µM
[22] = second compound 1 µM, first compound 1 µM
[23] = second compound 1 µM, first compound 3.16 µM
[24] = second compound 1 µM, first compound 10 µM
[25] = second compound 3.16 µM, first compound 0.0316 µM
[26] = second compound 3.16 µM, first compound 0.1 µM
[27] = second compound 3.16 µM, first compound 0.316 µM
[28] = second compound 3.16 µM, first compound 1 µM
[29] = second compound 3.16 µM, first compound 3.16 µM
[30] = second compound 3.16 µM, first compound 10 µM
[31] = second compound 10 µM, first compound 0.0316 µM
[32] = second compound 10 µM, first compound 0.1 µM
[33] = second compound 10 µM, first compound 0.316 µM
[34] = second compound 10 µM, first compound 1 µM
[35] = second compound 10 µM, first compound 3.16 µM
[36] = second compound 10 µM, first compound 10 µM
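Further: spheroids exposed to compound for seven days before readout.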
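Wherever IC50 is given: luminescence signal used as a proxy for viable cells.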

`CC(Nc1ccc2c(c1)OCCn1cc(N3C(=O)OCC3C(F)F)nc1-2)C(N)=O` (centres undefined) + C#Cc1c(F)ccc2cc(O)cc(-c3ncc4c(N5CC6CCC(C5)N6)nc(OCC56CCCN5CC(F)C6)nc4c3F)c12 was tested, and the IC50 (second compound 0.0316 µM) was 0.205 µM, the IC50 (second compound 0.1 µM) was 0.211 µM and the IC50 (second compound 0.316 µM) was 0.0386 µM. For the same compound, the IC50 (second compound 1 µM) was less than 0.0316 µM, the IC50 (second compound 3.16 µM) was less than 0.0316 µM and the IC50 (second compound 10 µM) was less than 0.0316 µM. For the same compound, the viability, T/C [1] was 77.6%, the viability, T/C [2] was 56.2% and the viability, T/C [3] was 46.9%. The viability, T/C [4] was 38.2%, the viability, T/C [5] was 35% and the viability, T/C [6] was 31.9%. The viability, T/C [7] was 73.5%, the viability, T/C [8] was 62.1% and the viability, T/C [9] was 43.2%. For the same compound, the viability, T/C [10] was 32.1%, the viability, T/C [11] was 30.7% and the viability, T/C [12] was 26%. For the same compound, the viability, T/C [13] was 53.1%, the viability, T/C [14] was 38% and the viability, T/C [15] was 31.3%. For the same compound, the viability, T/C [16] was 30.3%, the viability, T/C [17] was 28.4% and the viability, T/C [18] was 22.2%. It also gave a viability, T/C [19] of 26.7%, a viability, T/C [20] of 25.6% and a viability, T/C [21] of 20.9%. It also gave a viability, T/C [22] of 19.1%, a viability, T/C [23] of 18.3% and a viability, T/C [24] of 14.8%. It also gave a viability, T/C [25] of 16.6%, a viability, T/C [26] of 14.6% and a viability, T/C [27] of 11.5%. The viability, T/C [28] was 12.6%, the viability, T/C [29] was 10% and the viability, T/C [30] was 7.52%. The viability, T/C [31] was 9.27%, the viability, T/C [32] was 6.91% and the viability, T/C [33] was 5.66%. The viability, T/C [34] was 5.21%, the viability, T/C [35] was 5.4% and the viability, T/C [36] was 4.6%.
Work on `CCC(CC)c1cc(NC2CCC(N)C2)n2nccc2n1` (centres undefined) + C#Cc1c(F)ccc2cc(O)cc(-c3ncc4c(N5CC6CCC(C5)N6)nc(OCC56CCCN5CC(F)C6)nc4c3F)c12 yielded an IC50 (second compound 0.0316 µM) of 1.9 µM, an IC50 (second compound 0.1 µM) of 1.71 µM and an IC50 (second compound 0.316 µM) of 1.25 µM. It also gave an IC50 (second compound 1 µM) of less than 0.0316 µM, an IC50 (second compound 3.16 µM) of less than 0.0316 µM and an IC50 (second compound 10 µM) of less than 0.0316 µM. The viability, T/C [1] was 102%, the viability, T/C [2] was 97.2% and the viability, T/C [3] was 111%. For the same compound, the viability, T/C [4] was 119%, the viability, T/C [5] was 4.67% and the viability, T/C [6] was 0.25%. For the same compound, the viability, T/C [7] was 78.4%, the viability, T/C [8] was 83.5% and the viability, T/C [9] was 92.2%. The viability, T/C [10] was 104%, the viability, T/C [11] was 4.32% and the viability, T/C [12] was 0.47%. For the same compound, the viability, T/C [13] was 60.3%, the viability, T/C [14] was 57.3% and the viability, T/C [15] was 59.7%. For the same compound, the viability, T/C [16] was 67.8%, the viability, T/C [17] was 3.78% and the viability, T/C [18] was 0.39%. It also gave a viability, T/C [19] of 32.4%, a viability, T/C [20] of 37% and a viability, T/C [21] of 43.4%. The viability, T/C [22] was 38.2%, the viability, T/C [23] was 3.47% and the viability, T/C [24] was 0.38%. For the same compound, the viability, T/C [25] was 18.2%, the viability, T/C [26] was 17.8% and the viability, T/C [27] was 20.2%. For the same compound, the viability, T/C [28] was 17.1%, the viability, T/C [29] was 2.86% and the viability, T/C [30] was 0.37%. It also gave a viability, T/C [31] of 10.3%, a viability, T/C [32] of 11.3% and a viability, T/C [33] of 10.3%. The viability, T/C [34] was 9.32%, the viability, T/C [35] was 1.25% and the viability, T/C [36] was 0.15%.
